Assay results published in ChEMBL document CHEMBL3351661, “Structure-activity relationship studies of antiplasmodial aminomethylthiazoles” (Bioorg Med Chem Lett, 2014).
Values after ≈ are worked out from the molar mass of the structure shown.

How the values were obtained:
[1] = Aqueous kinetic solubility at pH 7.4 by turbidimetric assay; assay type: physicochemical; conditions: read-out: Kinetic_solubility
Plasmodium falciparum = assay: microbe, parasite or virus in culture; conditions: NF54
Description: Antiplasmodial activity against chloroquine-sensitive Plasmodium falciparum NF54 asexual erythrocyte stages by parasite lactate dehydrogenase assay

| solubility kinetic [1] [µg/mL] | IC50 (Plasmodium falciparum) [µM] | SMILES |
| --- | --- | --- |
| 160 (≈ 489 µM) | 19.8 | Cc1cc(C(=O)Nc2nc(CN)cs2)n(Cc2ccccc2)n1 |
| 40 (≈ 99.1 µM) | 2.03 | Cc1ccc(-c2cc(C(=O)Nc3nc(CN)cs3)n(Cc3ccccc3)n2)cc1 |
|  | 4.7 | CC(C)(C)c1cc(C(=O)Nc2nc(CN)cs2)n(Cc2ccc(F)cc2F)n1 |
| 40 (≈ 110 µM) | 0.125 | CC(C)(C)c1cc(C(=O)Nc2cccc(CN)n2)n(Cc2ccccc2)n1 |
| > 200 | 12.8 | CC(C)(C)c1cc(C(=O)Nc2nc(CN)cs2)n(Cc2ccc(Br)cc2)n1 |
| 80 (≈ 217 µM) | 9.09 | CC(C)(C)c1cc(C(=O)Nc2ncc(CN)s2)n(Cc2ccccc2)n1 |
|  | 7.59 | CC(C)(C)c1cc(C(=O)Nc2ccc(CN)c3ccccc23)n(Cc2ccccc2)n1 |
| 160 (≈ 450 µM) | 67.5 | CC(C)(C)c1cc(C(=O)Nc2nc(CN)cs2)n(-c2ccccc2)n1 |
| 10 (≈ 23.5 µM) | 2.58 | CC(C)(C)c1ccc(Cn2nc(C(C)(C)C)cc2C(=O)Nc2nc(CN)cs2)cc1 |
| > 200 | 0.0203 | CC(C)(C)c1cc(C(=O)Nc2nc(CN)cs2)n(Cc2ccccc2)n1 |
| 80 (≈ 198 µM) | 1.84 | CC(C)(C)c1cc(C(=O)Nc2nc(CN)cs2)n(Cc2ccccc2Cl)n1 |
| > 200 | 12.1 | CC(C)(C)c1cc(C(=O)Nc2nc(CN)cs2)n(Cc2ccc(Cl)cc2)n1 |

Continued, molecule first:

| SMILES | solubility kinetic [1] [µg/mL] | IC50 (Plasmodium falciparum) [µM] |
| --- | --- | --- |
| N#Cc1ccc(C(=O)Nc2nc(CN)cs2)cc1 | 20 (≈ 77.4 µM) | 146 |
| NCc1csc(NC(=O)c2ccnn2Cc2ccccc2)n1 | > 200 | 43.7 |
| NCc1csc(NC(=O)c2ccc(C(F)(F)F)cc2)n1 | 40 (≈ 133 µM) | 40.2 |
| NCc1csc(NC(=O)c2cscn2)n1 | 80 (≈ 333 µM) | 149 |
| NCc1csc(NC(=O)c2ccc(F)cc2)n1 | 80 (≈ 318 µM) | 123 |
| C[C@H]1[C@H](OC(=O)CCC(=O)O)O[C@@H]2O[C@@]3(C)CC[C@H]4[C@H](C)CC[C@@H]1[C@@]24OO3 [ARTESUNATE] |  | 0.0052 |
| NCc1csc(NC(=O)c2ccc(OC(F)(F)F)cc2)n1 | 40 (≈ 126 µM) | 43.9 |
| NCc1csc(NC(=O)c2cnccn2)n1 | > 200 | 173 |
| NCc1csc(NC(=O)c2cccs2)n1 | 80 (≈ 334 µM) | 91.7 |
